Results published in patent US20250090498A1, “TREATMENT OF PRIMARY CTLA-4 CHECKPOINT RELATED IMMUNODEFICIENCIES” (ADIENNE PHARMA & BIOTECH SA, priority 2023, published 2025).
Entries after “also recorded” stand apart in the source; their conditions may differ.

Columns and labels:
[1] = system: DSS+anti-CTLA-4-induced colitis; experiment: DSS+anti-CTLA-4-induced colitis in C57BL/6 mice; type: in vivo; conditions: for lymphocytic infiltration, dose dependence: 0.09-0.045-0.022 mg/mouse (4.5, 2.25 and 1.12 mg/kg), lung, spleen, liver, kidney; for efficacy dose: intragastrically every other day, Eudragit formulations
Method: In trials, C57BL/6 mice received dextran sulfate sodium (DSS) (3%) in their drinking water and 100 μg anti-CTLA-4 monoclonal antibody (mAb) or isotype control antibody intraperitoneally, at days 0, 4 and 8 following the DSS administration as indicated in FIG. 2A. DSS is a water soluble, negatively charged sulfated polysaccharide with a highly variable molecular weight ranging from 5 to 1400 kDa. […] Eudragit-formulated 3-IAld (Puccetti et al, 2018) was given at 18 mg/kg 3-IAld intragastrically every other day, as illustrated in FIG. 2A. Animals were monitored daily for appearance of diarrhea, fecal blood, loss of body weight and survival. A week after DSS treatment (14 days after initiation of treatment), at the time at which the model recapitulates the human disease (Manicassamy et al, 2014), surviving mice were sacrificed, and the colon was excised and evaluated for macroscopic damage and local immune parameters.
In trials, C57BL/6 mice received dextran sulfate sodium (DSS) (3%) in their drinking water and 100 μg anti-CTLA-4 monoclonal antibody (mAb) or isotype control antibody intraperitoneally, at days 0, 4 and 8 following the DSS administration as indicated in FIG. 17A. Eudragit-formulated 1-methylindole-3-carboxylic acid was given intragastrically every other day, at scaling doses of 0.09, 0.18, or 0.36 mg/mouse (FIG. 17A). Animals were monitored daily for the appearance of diarrhea, fecal blood and loss of body weight. A week after DSS treatment (14 days after initiation of treatment), at the time at which the murine model recapitulates the human disease (Manicassamy et al, 2014), surviving mice were sacrificed and the colon was excised and evaluated for macroscopic damage and local immune parameters. […] CTLA-4 haploinsufficiency typically presents with extensive CD3+T cell infiltration across different organs (Kuehn et al, 2014—Schubert et al, 2014—Schwab et al, 2018).
In the DSS+anti-CTLA-4-induced colitis, mice were treated intragastrically (Eudragit formulations) every other day starting 4 days before DSS treatment and continuing until mice sacrifice. Mice were evaluated for disease activity in terms of histopathology, parameters of barrier permeability function and intestinal inflammation.
Assessment of scaling doses of 0.09-0.045-0.022 mg/mouse (corresponding to 4.5, 2.25 and 1.12 mg/kg) in the murine model of immune-mediated colitis (DSS+anti-CTLA-4) was performed as shown in Table 2 below.
C57BL/6 mice were treated with DSS in drinking water for 1 week followed by a recovery period of another week and administered […] of anti-CTLA-4 mAb and 1ME3CA as depicted in the experimental schedule in FIG. 23A. Mice were evaluated for weight change (FIG. 23B), disease activity index (FIG. 23C), clinical morbidity and rectal bleeding (FIG. 23D), colon and ileum histology (FIG. 23E) (PAS staining), ×40 magnification (scale bars, 100 m). Each in vivo experiment includes four to six mice per group (20 mice in each experiment).
Photographs were taken with a high-resolution microscope, lung and spleen ×10 magnification (scale bars, 400 m) and liver and kidney ×20 magnification (scale bars, 200 m).

[2] = preliminary pharmacokinetics in serum after Eudragit-formulated 3-IAld (90% 3-IAld/10% 13C8-labeled 3-IAld), mass spectrometry; type: in vivo
Method: Primary pharmacodynamics studies have been performed. The mode of action of 3-IAld occurs upon binding to AhR, both in vitro and in vivo. In vitro, 3-IAld induced luciferase activity in the H1L1.1c2 cell line containing a stably-transfected AhR-responsive firefly luciferase at the dose range […] (Zelante et al, 2013). […] Preliminary pharmacokinetics data have been obtained by administration of Eudragit-formulated 3-IAld in the composition 90% 3-IAld/10% 13C8-labeled 3-IAld and targeted/untargeted analysis by mass spectrometry in serum at different times (30 minutes (min), 1 hour (h), 2 h, 4.5h, 6 h, 24h). […] The presence of indole-3-formic acid was also confirmed with labelled 3-IAld (FIG. 13E), showing a similar kinetics and a peak level of about 25 μM at 30 min.

[3] = system: pathology after acute treatment with anti-CTLA-4 monoclonal antibody; experiment: acute anti-CTLA-4 treatment in 8-10 week-old Il10−/− mice, without DSS; type: in vivo
Method: Il10^−/− mice were treated with anti-CTLA-4 monoclonal antibody and 3-IAld alone, as above (FIG. 6), without DSS. Animals were monitored daily for body weight and inflammatory pathology in the colon and sacrificed at 14 days after the first anti-CTLA-4 monoclonal antibody administration.

[4] = system: DSS-induced colitis; conditions: cited from earlier work
[5] = system: immune-mediated colitis; experiment: immune-mediated colitis in Rag1−/− mice infused with CD4+ T cells and treated with anti-CTLA-4 mAb; type: in vivo
Method: Immunodeficient Rag1^−/− mice reconstituted with naïve CD4^+ T cells and treated with anti-CTLA-4 monoclonal antibody. Rag1−/− mice, mice homozygous for the RagltmlMom mutation produce no mature T cells or B cells. Their phenotype can be described as a “non-leaky” immune deficiency. Rag1−/− 8-10 weeks old mice were injected intraperitoneally with 4×10^5 naïve CD4^+ T cells purified from spleens of C57BL/6 mice and treated with anti-CTLA-4 mAb or control IgG the day after T-cell reconstitution and then at days 0, 4, 8, 12, and 16. […] Mice were monitored daily for overall mortality and body weight loss and sacrificed on day 21.

[6] = system: pathology after chronic treatment with anti-CTLA-4 monoclonal antibody; experiment: chronic anti-CTLA-4 treatment in 16 wk-old Il10−/− mice, without DSS; type: in vivo
Text: Animals were monitored daily for body weight, disease activity index, clinical inspection, inflammatory pathology in the ileum and colon, epithelial barrier function and immunological parameters of inflammation. […] Consistent with the extensive T cells infiltration in different organs observed in CTLA-4 haploinsufficiency (Kuehn et al, 2014; Schubert et al, 2014; […] No lymphocytic infiltration or immunopathology were detected in organs, such as the spleens and kidneys (data not shown).

[7] = 1-methylindole-3-carboxylic acid
[8] = 1-methylindole-3-carboxylic acid 0.09, 0.18 or 0.36 mg/mouse every other day
[9] = 1-methylindole-3-carboxylic acid 0.09-0.36 mg/mouse
[10] = 3-IAld 18 mg/kg, colon homogenates
[11] = 3-IAld 18 mg/kg, surviving mice, 14 days
[12] = Eudragit-formulated 3-IAld 18 mg/kg intragastrically every other day

## Cn1cc(C(=O)O)c2ccccc21 [1-methylindole-3-carboxylic acid, 1-Methyl-1H-indole-3-carboxylic acid]
[1]; 0.09-0.045-0.022 mg/mouse
  inflammatory pathology, dose dependence: protects from inflammatory pathology
[1]; listed as 1ME3CA
  lymphocytic infiltration, dose dependence: reduces lymphocytic infiltration in anti-CTLA-4-treated mice in a dose-dependent manner
[1]; listed as MECA
  lymphocytic infiltration, dose dependence: reduces lymphocytic infiltration
[1]; [7]
  Il1b expression in the colon: reduced levels
  Il10 expression in the colon: increased levels
  anti-inflammatory state and AhR activation: promotes an anti-inflammatory state and AhR activation
[1]; [8]
  clinical morbidity and rectal bleeding: protected
  disease activity index: decreased
[1]; [9]
  CD3+ T cell (lymphocytic) infiltration in the lung: effective in reducing; also recorded: reduces lymphocytic infiltration
  CD3+ T cell infiltration in the ileum and colon: significantly reduced
  gut inflammatory pathology (overall): prevent gut inflammatory pathology; also recorded: protects from inflammatory pathology
  normal architectural structure of the colon and ileum: recovery
[1]; 1-methylindole-3-carboxylic acid 0.09-0.36 mg/mouse, colon and ileum
  epithelial barrier function (expression of ZO-1): maintenance
[1]; 1-methylindole-3-carboxylic acid, listed as 1-Methylindole-3-Carboxylic Acid
  expression of the AhR-dependent genes Cyp1a1, the antimicrobial peptide Reg3g, and 1122: Potent Activator
[1]; 1-methylindole-3-carboxylic acid, listed as 1-methylindole-3-carboxylic
  expression of the AhR-dependent genes Cyp1a1, the antimicrobial peptide Reg3g, and 1122: induced the expression
[1]; Eudragit-formulated 1-methylindole-3-carboxylic acid 0.09, 0.18 or 0.36 mg/mouse intragastrically every other day
  body weight loss: significant attenuation
[1]; each dose including 0.09 mg/mouse
  effects at each administered dose: Positive effects
[1]
  efficacy dose: 2.25 mg/kg
[2]; same kinetics as indole-3-formic acid
  time of peak levels as metabolite of 3-IAld: 30 min

## O=Cc1c[nH]c2ccccc12 [3-IAld, 1H-indole-3-carbaldehyde]
[1]; 3-IAld 18 mg/kg
  anti-inflammatory state: promotes an anti-inflammatory state
  epithelial barrier integrity: provides epithelial barrier integrity
  expression of IL-22 (gene and protein): induced expression
  expression of Lgr5, Nfil3 and Muc1: promoted the expression
  expression of the AhR-dependent genes Cyp1a1 and Ahrr: induced expression
  expression of the antimicrobial peptide Reg37: induced expression
[1]; 3-IAld 18 mg/kg intragastrically every other day
  gut inflammatory pathology (overall): prevent gut inflammatory pathology; also recorded: protects from inflammatory pathology
[1]; [10]
  amounts of IL-10: increased amounts
  levels of TNF-α, IL-10 and IL-17A: reduced levels
  levels of calprotectin: reduced
[1]; 3-IAld 18 mg/kg, serum
  passage of dextran-FITC across the intestinal barrier: reduced
[1]; [11]
  epithelial barrier function (expression of ZO-1): recovery
  epithelial cell proliferation and renewal (Ki-67 staining): recovery
  gross pathology: improved
  normal architecture structure of the colon: recovery
[1]; [12]
  body weight: increased
  disease activity index: decreased
  survival: increased
[1]
  efficacy dose: 18 mg/kg
[2]; in vivo
  labelled 3-IAld serum level at 2 h: sharply reduced levels
  metabolic conversion: rapid metabolic conversion
  time of peak of labelled 3-IAld in serum: 30 to 60 min
[3]; 3-IAld
  pathology after acute anti-CTLA-4 treatment (overall): protects
[3]; 3-IAld as in the DSS model, 14 days
  body weight loss: prevented
[3]; 3-IAld, 14 days
  inflammatory pathology (colon): ameliorated
  massive cellular infiltrate (submucosa): reducing
[4]; intragastric administration, AhR-dependent manner
  IL-22 production: induced IL-22 production
[4]; mouse, in vivo
  therapeutic efficacy in a murine model of dextran-induced colitis: therapeutic efficacy
[5]; 3-IAld 18 mg/kg
  progression of immune-mediated colitis (overall): limits progression
[5]; 3-IAld 18 mg/kg intragastrically every other day, 21 days
  weight loss: reduced
[5]; 3-IAld 18 mg/kg, day 21
  colon histopathology: improved
  gross pathology: improved
[6]; 3-IAld, chronic schedule
  cytotoxic effects / pathology induced by CTLA-4 blockade (overall): effective; also recorded: protects
[6]; ileum, colon, lung and liver, anti-CD3 staining
  CD3+ T cell (lymphocytic) infiltration: significantly reduced; also recorded: reduces lymphocytic infiltration
